Reference: patent US20060069132A1, “Azolecarboxamide herbicides” (priority 2004, published 2006)

Tests used:
barnyardgrass [1] = assay: Test B pre-/postemergence herbicide test; assay type: in vivo, Echinochloa crus-galli
Procedure, shortened: (§1)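 Pre: seeds sown, then sprayed. Post: 1–4-leaf plants (2–18 cm) sprayed at the same time. Paddy: flooded, treated at 2-leaf stage. Formulation: non-phytotoxic solvent with surfactant. Greenhouse 13–15 days; visual 0–100 score relative to controls.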

cocklebur = assay: Test B pre-/postemergence herbicide test; assay type: in vivo, Xanthium strumarium
Procedure, shortened: as §1

corn = assay: Test B pre-/postemergence herbicide test; assay type: in vivo, Zea mays
Procedure, shortened: (§2)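 Flooded paddy rice and barnyardgrass were treated at the 2-leaf stage; upland plantings received compound either on sown seed or on 1- to 4-leaf seedlings. All were kept 13–15 days in a greenhouse and scored visually, 0–100, relative to untreated plants.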

giant foxtail = assay: Test B pre-/postemergence herbicide test; assay type: in vivo, Setaria faberi
Procedure, shortened: as §2

lambsquarters = assay: Test B pre-/postemergence herbicide test; assay type: in vivo, Chenopodium album
Procedure, shortened: as §2

morningglory = assay: Test B pre-/postemergence herbicide test; assay type: in vivo, Ipomoea coccinea
Procedure, shortened: as §1

pigweed = assay: Test B pre-/postemergence herbicide test; assay type: in vivo, Amaranthus retroflexus
Procedure, shortened: as §2

velvetleaf = assay: Test B pre-/postemergence herbicide test; assay type: in vivo, Abutilon theophrasti
Procedure, shortened: as §2

blackgrass = assay: Test B postemergence herbicide test; assay type: in vivo, Alopecurus myosuroides
Procedure, shortened: (§3)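 Read-out: visual comparison with controls, scored 0 to 100, where 100 means complete control and 0 no effect. Formulated chemicals were applied postemergence to plants 2–18 cm tall (1- to 4-leaf), or to flooded-paddy plants at the 2-leaf stage, then held 13 to 15 days under glass.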

wheat = assay: Test B postemergence herbicide test; assay type: in vivo, Triticum aestivum; parameters: key to Wheat plant response rating: 0 = no effect, 100 = complete control
Procedure, shortened: as §3

wild oat = assay: Test B postemergence herbicide test; assay type: in vivo, Avena fatua
Procedure, shortened: as §3

rice = assay: Test B flooded paddy test; assay type: in vivo, Oryza sativa; details: 1000 g ai/ha, scale 0 to 100 (0 no effect, 100 complete control)
Procedure, shortened: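 After treating 2-leaf paddy plants or 2–18 cm postemergence plants (1 to 4 leaves) with formulated chemical, researchers kept them in a greenhouse for 13–15 days. Effects were judged visually versus controls: 0 indicates none, 100 total control.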

[2] = system: small flower umbrella sedge; assay: Test B flooded paddy test; assay type: in vivo, Cyperus difformis; details: 1000 g ai/ha, scale 0 to 100 (0 no effect, 100 complete control)
Procedure, shortened: as §3

ducksalad = assay: Test B flooded paddy test; assay type: in vivo, Heteranthera limosa; details: 1000 g ai/ha, scale 0 to 100 (0 no effect, 100 complete control)
Procedure, shortened: as §3

barnyardgrass [3] = assay: Test B flooded paddy test; assay type: in vivo, Echinochloa crus-galli; details: 1000 g ai/ha, scale 0 to 100 (0 no effect, 100 complete control)
Procedure, shortened: as §3

[4] = 125 g ai/ha, 0 is no effect, 100 is complete control, preemergence
[5] = Postemergence, 500 g ai/ha, scale 0 (no effect) to 100 (complete control)
[6] = postemergence, 125 g ai/ha, scale 0 to 100
[7] = Postemergence, 500 g ai/ha, visual rating after 13 to 15 days, scale 0 (no effect) to 100 (complete control)
[8] = Preemergence, 500 g ai/ha, scale 0 to 100
[9] = postemergence, 125 g ai/ha, visual rating, scale 0 (no effect) to 100 (complete control)
[10] = preemergence, 125 g ai/ha, 0 to 100 scale, 0 is no effect, 100 is complete control

`CCN(C(C)=O)C(=O)c1ccc(F)c(NC(=O)c2cc(C(C)(C)C)nn2CC)c1` [Compound 413] was tested, and the “Plant response rating (0 to 100 scale), Barnyardgrass” value (barnyardgrass [1]; [4]) was 40, the “Barnyardgrass plant response rating” value (barnyardgrass [1]; Postemergence, 125 g ai/ha, scale 0 (no effect) to 100 (complete control)) was 10 and the “Barnyardgrass plant response rating” value (barnyardgrass [1]; [5]) was 20. The “Cocklebur plant response rating” value (cocklebur; [5]) was 90, the “Cocklebur plant response rating” value (cocklebur; [6]) was 30 and the “Plant response rating (0 to 100 scale), Corn” value (corn; [4]) was 0. The “Corn plant response rating” value (corn; [5]) was 20, the “Corn plant response rating” value (corn; [6]) was 10 and the “Plant response rating (0 to 100 scale), Foxtail, Giant” value (giant foxtail; [4]) was 10. The “Foxtail, Giant plant response rating” value (giant foxtail; [5]) was 20, the “Foxtail, Giant plant response rating” value (giant foxtail; [6]) was 20 and the “Lambsquarters plant response rating” value (lambsquarters; [5]) was 90. The “Lambsquarters plant response rating” value (lambsquarters; [6]) was 70, the “Plant response rating (0 to 100 scale), Morningglory” value (morningglory; [4]) was 0 and the “Morningglory plant response rating” value (morningglory; [5]) was 70. The “Morningglory plant response rating” value (morningglory; [6]) was 30, the “Plant response rating (0 to 100 scale), Pigweed” value (pigweed; [4]) was 20 and the “Pigweed plant response rating” value (pigweed; [5]) was 70. For the same compound, the “Pigweed plant response rating” value (pigweed; [6]) was 50, the “Plant response rating (0 to 100 scale), Velvetleaf” value (velvetleaf; [4]) was 0 and the “Velvetleaf plant response rating” value (velvetleaf; [5]) was 50. For the same compound, the “Velvetleaf plant response rating” value (velvetleaf; [6]) was 30, the “Blackgrass plant response rating” value (blackgrass; [5]) was 20 and the “Blackgrass plant response rating” value (blackgrass; [6]) was 10. The “Wheat plant response rating” value (wheat; 500 g ai/ha, scale 0 to 100, 0 no effect, 100 complete control, preemergence) was 80, the “Wheat plant response rating” value (wheat; [5]) was 10 and the “Wheat plant response rating” value (wheat; [6]) was 0. The “Oat, Wild plant response rating” value (wild oat; [5]) was 10, the “Oat, Wild plant response rating” value (wild oat; [6]) was 0 and the “Rice plant response rating” value (rice) was 60. For the same compound, the “Sedge, Umbrella plant response rating” value [2] was 90, the “Ducksalad plant response rating” value (ducksalad) was 80 and the “Barnyardgrass plant response rating” value (barnyardgrass [3]) was 60.

`CCn1nc(C(C)(C)C)cc1C(=O)Nc1cccc(C(=O)NCC(C)C)c1` [Compound 61] was tested, and the “Plant response rating, Barnyardgrass” value (barnyardgrass [1]; [7]) was 30, the “Barnyardgrass plant response rating” value (barnyardgrass [1]; [8]) was 60 and the “Barnyardgrass plant response rating” value (barnyardgrass [1]; [9]) was 20. The “Plant response rating, Barnyardgrass” value (barnyardgrass [1]; [10]) was 20, the “Plant response rating, Cocklebur” value (cocklebur; [7]) was 100 and the “Cocklebur plant response rating” value (cocklebur; [8]) was 0. The “Cocklebur plant response rating” value (cocklebur; [9]) was 60, the “Plant response rating, Cocklebur” value (cocklebur; [10]) was 0 and the “Plant response rating, Corn” value (corn; [7]) was 40. The “Corn plant response rating” value (corn; [8]) was 10, the “Corn plant response rating” value (corn; [9]) was 20 and the “Plant response rating, Corn” value (corn; [10]) was 0. The “Plant response rating, Foxtail, Giant” value (giant foxtail; [7]) was 30, the “Foxtail, Giant plant response rating” value (giant foxtail; [8]) was 80 and the “Foxtail, Giant plant response rating” value (giant foxtail; [9]) was 20. The “Plant response rating, Foxtail, Giant” value (giant foxtail; [10]) was 20, the “Plant response rating, Lambsquarters” value (lambsquarters; [7]) was 100 and the “Lambsquarters plant response rating” value (lambsquarters; [9]) was 90. For the same compound, the “Plant response rating, Lambsquarters” value (lambsquarters; [10]) was 100, the “Plant response rating, Morningglory” value (morningglory; [7]) was 50 and the “Morningglory plant response rating” value (morningglory; [9]) was 20. For the same compound, the “Plant response rating, Pigweed” value (pigweed; [7]) was 60, the “Pigweed plant response rating” value (pigweed; [9]) was 20 and the “Plant response rating, Pigweed” value (pigweed; [10]) was 80. The “Plant response rating, Velvetleaf” value (velvetleaf; [7]) was 70, the “Velvetleaf plant response rating” value (velvetleaf; [9]) was 30 and the “Plant response rating, Velvetleaf” value (velvetleaf; [10]) was 70. For the same compound, the “Plant response rating, Blackgrass” value (blackgrass; [7]) was 0, the “Blackgrass plant response rating” value (blackgrass; [9]) was 0 and the “Plant response rating, Wheat” value (wheat; [7]) was 10. For the same compound, the “Wheat plant response rating” value (wheat; [9]) was 10, the “Plant response rating, Oat, Wild” value (wild oat; [7]) was 20 and the “Oat, Wild plant response rating” value (wild oat; [9]) was 20. For the same compound, the “Rice plant response rating” value (rice; visual rating, 13 to 15 days) was 0, the “Sedge, Umbrella plant response rating” value ([2]; visual rating, 13 to 15 days) was 60 and the “Ducksalad plant response rating” value (ducksalad; visual rating, 13 to 15 days) was 80. For the same compound, the “Barnyardgrass plant response rating” value (barnyardgrass [3]; visual rating, 13 to 15 days) was 30.
